For one assay, the target named is T1, Sclerostin (Homo sapiens, UniProt Q9BQB4).
T1 sequence (Q9BQB4 24-213): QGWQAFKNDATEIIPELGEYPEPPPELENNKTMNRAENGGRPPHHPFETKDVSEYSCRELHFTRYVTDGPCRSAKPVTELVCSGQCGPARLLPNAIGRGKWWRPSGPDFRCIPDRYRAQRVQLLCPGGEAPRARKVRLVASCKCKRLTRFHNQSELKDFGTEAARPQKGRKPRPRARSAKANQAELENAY
As to the kind of experiment: FP competition assay. The assay is classed as binding. The following applies: FP competition with probe 15 (table footnote).

The next assay has as its target T2, IL-8 (Homo sapiens, UniProt P10145).
T2 sequence (P10145 21-99): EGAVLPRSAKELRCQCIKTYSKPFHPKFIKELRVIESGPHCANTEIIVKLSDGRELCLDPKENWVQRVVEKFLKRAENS
Nature of the assay: FP competition assay. The assay is classed as binding. Particulars: FP competition with probe 15 (table footnote).

For the next assay, the target named is T3, BMP-2 (Homo sapiens, UniProt P12643).
T3 sequence (P12643 283-396): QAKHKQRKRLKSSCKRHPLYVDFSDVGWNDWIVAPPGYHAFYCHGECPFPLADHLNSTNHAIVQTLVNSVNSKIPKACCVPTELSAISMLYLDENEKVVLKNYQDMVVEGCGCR
Nature of the assay: FP competition assay. Particulars: FP competition with probe 15 (table footnote). The assay is classed as binding.

Assay [1] has as its system antithrombine III (AT-III). The following applies: cited from earlier work.

Turning to `CO[C@H]1O[C@H](COS(=O)(=O)O)[C@@H](O[C@@H]2O[C@@H](C(=O)O)[C@@H](O[C@H]3O[C@H](COS(=O)(=O)O)[C@@H](O[C@@H]4O[C@H](C(=O)O)[C@@H](O[C@H]5O[C@H](COS(=O)(=O)O)[C@@H](O)[C@H](O)[C@H]5NS(=O)(=O)O)[C@H](O)[C@H]4O)[C@H](OS(=O)(=O)O)[C@H]3NS(=O)(=O)O)[C@H](O)[C@H]2OS(=O)(=O)O)[C@H](O)[C@H]1NS(=O)(=O)O` [Fondaparinux, fondaparinux], the Kd at Sclerostin worked out at 629 ± 335 µM; at IL-8, 19 ± 2.5 µM; on BMP-2, 80.9 ± 8.5 µM. The “ligand affinity class” value in assay [1] is “nanomolar ligand”.

In general, Kd refers to the constant that tells how readily two partners part at equilibrium.

The values are drawn from paper PMC6346292 (Chemical Science, 2018).
